Experimental data as given in patent US6642392B1 (priority 1997, dated 2003).
Like-named read-outs stand apart in the source and are kept apart here.

Assays:
Assay type in all cases: in vivo
[1] = test system: Eiysiphe graminis f. sp. tritici; experiment: Test A: wheat powdery mildew, preventive spray on wheat seedlings; settings: for Test A disease control rating: wheat powdery mildew; for Test A disease control rating (100 = 100% disease control, 0 = no disease control): wheat seedlings sprayed to run-off, inoculated the following day, rating relative to controls, unmarked compounds (standard test rate)
Summary of the method: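 Compounds (3% acetone, 250 ppm Trem 014) sprayed to run-off on wheat seedlings, inoculated next day with spore dust. Incubated 7 days at 20° C before disease rating, 0–100% control relative to untreated controls.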

Botrytis cinerea = experiment: Test E: gray mold, preventive spray on cucumber seedlings; settings: for Test E disease control rating: gray mold on cucumber; for Test E disease control rating (100 = 100% disease control, 0 = no disease control): cucumber seedlings sprayed to run-off, inoculated the following day, rating relative to controls, unmarked compounds (standard test rate)
Summary of the method: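 Compounds in 3% acetone were suspended with 250 ppm Trem 014 surfactant and sprayed to run-off on cucumber seedlings. B. cinerea spores were inoculated next day, then 48 h saturated humidity at 20° C and 5 days at 20° C. Disease control rated 0–100% versus controls.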

Puccinia recondita = experiment: Test B: wheat leaf rust, preventive spray on wheat seedlings; settings: for Test B disease control rating: wheat leaf rust; for Test B disease control rating (100 = 100% disease control, 0 = no disease control): wheat seedlings sprayed to run-off, inoculated the following day, rating relative to controls, unmarked compounds (standard test rate)
Summary of the method: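 Wheat seedlings were sprayed to run-off with compound (3% acetone, 250 ppm Trem 014), then inoculated with P. recondita spores the next day. They were held 24 h saturated at 20 °C, then 6 days at 20 °C. Ratings are 0–100% disease control versus controls.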

Phytophthora infestans = settings: for Test D disease control rating: tomato late blight; for Test D disease control rating (100 = 100% disease control, 0 = no disease control): tomato seedlings sprayed to run-off, inoculated the following day, rating relative to controls, unmarked compounds (standard test rate)
Pyricularia oryzae = settings: for Test C disease control rating: rice blast; for Test C disease control rating (100 = 100% disease control, 0 = no disease control): rice seedlings sprayed to run-off, inoculated the following day, rating relative to controls, unmarked compounds (standard test rate)
[2] = 100 = 100% disease control, 0 = no control relative to controls, unmarked entries (standard test concentration)
[3] = 100 = 100% disease control, 0 = no control, unmarked entries (standard test concentration)

`CC(CCn1cc(Cl)cc1C#N)NC(=O)C(C#N)C(C)(C)C` (mixture of isomers) [compound 53] was tested, and the “Test A disease control rating” value [1, 2] was 0%, the “Test E disease control rating” value (Botrytis cinerea; [3]) was 0% and the “Test B disease control rating” value (Puccinia recondita; [3]) was 0%. The “Test D disease control rating” value (Phytophthora infestans; [3]) was 0% and the “Test C disease control rating” value (Pyricularia oryzae; [3]) was 53%.

In the case of `CCC1(C(=O)NC(C)COc2ccc(Cl)cc2)C(C)C1(Cl)Cl` (mixture of isomers) [83a], the “Test A disease control rating” value ([1]; tested at 40 ppm) is reported as 0%, the “Test E disease control rating” value (Botrytis cinerea; tested at 40 ppm) is reported as 0% and the “Test B disease control rating” value (Puccinia recondita; tested at 40 ppm) is reported as 0%. The “Test D disease control rating” value (Phytophthora infestans; tested at 40 ppm) was 0% and the “Test C disease control rating” value (Pyricularia oryzae; tested at 40 ppm) was 32%.

`Cc1cccc(OCC(C)NC(=O)C(C#N)C(C)(C)C)c1` (mixture of isomers) [compound 176] was tested, and the “Test A disease control rating” value [1, 2] was 77%, the “Test E disease control rating” value (Botrytis cinerea; [3]) was 6% and the “Test B disease control rating” value (Puccinia recondita; [3]) was 0%. The “Test D disease control rating” value (Phytophthora infestans; [3]) was 56% and the “Test C disease control rating” value (Pyricularia oryzae; [3]) was 94%.

`Cc1ccc(Cl)c(OC[C@@H](C)NC(=O)C(C#N)C(C)(C)C)c1` (single isomer, unassigned) [15b] was tested, and the “Test A disease control rating” value [1, 2] was 0%, the “Test E disease control rating” value (Botrytis cinerea; [3]) was 0% and the “Test B disease control rating” value (Puccinia recondita; [3]) was 0%. The “Test D disease control rating” value (Phytophthora infestans; [3]) was 45% and the “Test C disease control rating” value (Pyricularia oryzae; [3]) was 97%.

With `C[C@H](COc1ccc(F)c(F)c1Br)NC(=O)C(C#N)C(C)(C)C` (single isomer, unassigned) [187a] the “Test A disease control rating” value [1, 2] was 0%, the “Test E disease control rating” value (Botrytis cinerea; [3]) was 6% and the “Test B disease control rating” value (Puccinia recondita; [3]) was 28%. The “Test D disease control rating” value (Phytophthora infestans; [3]) was 9% and the “Test C disease control rating” value (Pyricularia oryzae; [3]) was 94%.

For `Cc1cccc(C#N)c1OCC(C)NC(=O)C(C#N)C(C)C(C)(C)C` (mixture of isomers) [compound 280], the “Test A disease control rating (100 = 100% disease control, 0 = no disease control)” value [1] was 56%, the “Test E disease control rating (100 = 100% disease control, 0 = no disease control)” value (Botrytis cinerea) was 0% and the “Test B disease control rating (100 = 100% disease control, 0 = no disease control)” value (Puccinia recondita) was 0%. For the same molecule, the “Test D disease control rating (100 = 100% disease control, 0 = no disease control)” value (Phytophthora infestans) was 0% and the “Test C disease control rating (100 = 100% disease control, 0 = no disease control)” value (Pyricularia oryzae) was 74%.

`CCC1(C(=O)NC(C)COc2cc(F)ccc2F)C(C)C1(Cl)Cl` (stereo not shown) [compound 107] was tested, and the “Test A disease control rating” value ([1]; tested at 40 ppm) was 71%, the “Test E disease control rating” value (Botrytis cinerea; tested at 40 ppm) was 0% and the “Test B disease control rating” value (Puccinia recondita; tested at 40 ppm) was 0%. For the same molecule, the “Test D disease control rating” value (Phytophthora infestans; tested at 40 ppm) was 0% and the “Test C disease control rating” value (Pyricularia oryzae; tested at 40 ppm) was 100%.

With `C=CC(C)(CF)C(C#N)C(=O)NC(C)COc1cc(F)ccc1F` (mixture of isomers) [compound 218] the “Test A disease control rating (100 = 100% disease control, 0 = no disease control)” value [1] was 86%, the “Test E disease control rating (100 = 100% disease control, 0 = no disease control)” value (Botrytis cinerea) was 0% and the “Test B disease control rating (100 = 100% disease control, 0 = no disease control)” value (Puccinia recondita) was 68%. The “Test D disease control rating (100 = 100% disease control, 0 = no disease control)” value (Phytophthora infestans) was 17% and the “Test C disease control rating (100 = 100% disease control, 0 = no disease control)” value (Pyricularia oryzae) was 100%.

In the case of `CCC1(C(=O)NC(C)COc2cccc(I)c2)C(C)C1(Cl)Cl` (mixture of isomers) [compound 88], the “Test A disease control rating” value ([1]; tested at 40 ppm) is reported as 52%, the “Test E disease control rating” value (Botrytis cinerea; tested at 40 ppm) is reported as 0% and the “Test B disease control rating” value (Puccinia recondita; tested at 40 ppm) is reported as 0%. For the same molecule, the “Test D disease control rating” value (Phytophthora infestans; tested at 40 ppm) was 0% and the “Test C disease control rating” value (Pyricularia oryzae; tested at 40 ppm) was 0%.

`CCC(=CCNC(=O)C1(CC)C(C)C1(Cl)Cl)c1ccccc1` (stereo not shown) [compound 269] was tested, and the “Test A disease control rating (100 = 100% disease control, 0 = no disease control)” value [1] was 98%, the “Test E disease control rating (100 = 100% disease control, 0 = no disease control)” value (Botrytis cinerea) was 0% and the “Test B disease control rating (100 = 100% disease control, 0 = no disease control)” value (Puccinia recondita) was 0%. The “Test D disease control rating (100 = 100% disease control, 0 = no disease control)” value (Phytophthora infestans) was 74% and the “Test C disease control rating (100 = 100% disease control, 0 = no disease control)” value (Pyricularia oryzae) was 94%.

With `CCC1(C(=O)NC(C)COc2c(Cl)cc(Cl)cc2Cl)C(C)C1(Cl)Cl` (stereo not shown) [compound 118] the “Test A disease control rating” value ([1]; tested at 40 ppm) was 83%, the “Test E disease control rating” value (Botrytis cinerea; tested at 40 ppm) was 0% and the “Test B disease control rating” value (Puccinia recondita; tested at 40 ppm) was 0%. The “Test D disease control rating” value (Phytophthora infestans; tested at 40 ppm) was 0% and the “Test C disease control rating” value (Pyricularia oryzae; tested at 40 ppm) was 0%.

In the case of `CCC1(C(=O)NC(C)COn2c(C#N)cc(Br)c2C)C(C)C1(Cl)Cl` (mixture of isomers) [compound 141], the “Test A disease control rating” value [1, 2] is reported as 38%, the “Test E disease control rating” value (Botrytis cinerea; [3]) is reported as 0% and the “Test B disease control rating” value (Puccinia recondita; [3]) is reported as 68%. For the same molecule, the “Test D disease control rating” value (Phytophthora infestans; [3]) was 84% and the “Test C disease control rating” value (Pyricularia oryzae; [3]) was 74%.

`C[C@H](COc1ccc(F)cc1Br)NC(=O)C(C#N)C(C)(C)C` (single isomer, unassigned) [165b] was tested, and the “Test A disease control rating” value [1, 2] was 95%, the “Test E disease control rating” value (Botrytis cinerea; [3]) was 95% and the “Test B disease control rating” value (Puccinia recondita; [3]) was 0%. The “Test D disease control rating” value (Phytophthora infestans; [3]) was 23% and the “Test C disease control rating” value (Pyricularia oryzae; [3]) was 94%.

For `CC(COc1ccccc1OC(F)(F)C(F)F)NC(=O)C(C#N)C(C)(C)C` (mixture of isomers) [compound 201], the “Test A disease control rating” value [1, 2] was 90%, the “Test E disease control rating” value (Botrytis cinerea; [3]) was 0% and the “Test B disease control rating” value (Puccinia recondita; [3]) was 0%. For the same molecule, the “Test D disease control rating” value (Phytophthora infestans; [3]) was 46% and the “Test C disease control rating” value (Pyricularia oryzae; [3]) was 53%.
